Measurements as given in US20130029928A1 (priority 2010, published 2013).
Read-outs that look alike come from different tables or passages of the source.

Experiment: Phase I study CXR1002-001: plasma pharmacokinetics (LC-MS/MS)
Assay type: in vivo, human
Conditions: human, plasma, oral, person, plasma, read-out: Concentration; for concentration at 24 h: 24 hr (Day 2); for concentration at 168 h: 168 hr (Day 8); for concentration at 192 h: 192 hr (Day 9); for concentration at 336 h: 336 hr (Day 15); for concentration at 360 h: 360 hr (Day 16); for concentration at 504 h: 504 hr (Day 22); for concentration at 528 h: 528 hr (Day 23); for concentration at 672 h: 672 hr (Day 29); for concentration at 696 h: 696 hr (Day 30); for concentration at 840 h: 840 hr (Day 36); for concentration at 864 h: 864 hr (Day 37)
Description: PK samples, PD (fasting) samples, blood glucose, and blood triglyceride samples, were taken over a 6-week period.
Dose limiting toxicity (DLT) will be based on the toxicity assessments over the first 3-week period of the repeat dosing schedule. PK samples (single blood sample) were taken on the following basis: • Every 6 weeks during the repeat dosing phase • If dosing is interrupted or stopped, samples will be taken at intervals according to patient convenience • PK sampling for safety evaluation may take place at any time, as clinically indicated
Plasma samples were collected after the single 50 mg dose at the following timepoints: Pre-dose, and then 0.25, 0.5, 0.75, 1, 1.5, 2, 3, 4, 6, 24, 48, and 72 hours after administration and then once weekly at weeks 2, 3, 4, 5, and 6 (days 8, 15, 22, 29, and 36). For patients treated with the weekly repeat dose, plasma samples were collected at the following timepoints: Pre-dose and then 2, 3, 4 and 24 hours after administration for a total of 6 weeks. Thereafter a single sample was collected every 6 weeks for monitoring of exposure during long term treatment. Plasma samples were processed at site and stored at −80° C. prior to batch shipment to the analytical laboratory.

In the case of `O=C(O)C(F)(F)C(F)(F)C(F)(F)C(F)(F)C(F)(F)C(F)(F)C(F)(F)F` [CXR1002], the concentration at 24 h (600 mg, Patient 024, 600 mg) is reported as 258 µM, the concentration at 168 h (600 mg, Patient 024, 600 mg) is reported as 212 µM and the concentration at 170 h (600 mg, Patient 024, 600 mg) is reported as 436 µM. For the same compound, the concentration at 171 h (600 mg, Patient 024, 600 mg) was 441 µM, the concentration at 172 h (600 mg, Patient 024, 600 mg) was 439 µM and the concentration at 192 h (600 mg, Patient 024, 600 mg) was 418 µM. The concentration at 336 h (600 mg, Patient 024, 600 mg) was 488 µM, the concentration at 338 h (600 mg, Patient 024, 600 mg) was 578 µM and the concentration at 339 h (600 mg, Patient 024, 600 mg) was 533 µM. For the same compound, the concentration at 340 h (600 mg, Patient 024, 600 mg) was 628 µM, the concentration at 360 h (600 mg, Patient 024, 600 mg) was 647 µM and the concentration at 504 h (600 mg, Patient 024, 600 mg) was 691 µM. For the same compound, the concentration at 506 h (600 mg, Patient 024, 600 mg) was 642 µM, the concentration at 507 h (600 mg, Patient 024, 600 mg) was 706 µM and the concentration at 508 h (600 mg, Patient 024, 600 mg) was 630 µM. The concentration at 528 h (600 mg, Patient 024, 600 mg) was 859 µM, the concentration at 672 h (600 mg, Patient 024, 600 mg) was 788 µM and the concentration at 674 h (600 mg, Patient 024, 600 mg) was 694 µM. It also gave a concentration at 675 h (600 mg, Patient 024, 600 mg) of 779 µM, a concentration at 676 h (600 mg, Patient 024, 600 mg) of 780 µM and a concentration at 696 h (600 mg, Patient 024, 600 mg) of 811 µM. For the same compound, the concentration at 840 h (600 mg, Patient 024, 600 mg) was 814 µM, the concentration at 842 h (600 mg, Patient 024, 600 mg) was 898 µM and the concentration at 843 h (600 mg, Patient 024, 600 mg) was 904 µM. The concentration at 844 h (600 mg, Patient 024, 600 mg) was 908 µM, the concentration at 864 h (600 mg, Patient 024, 600 mg) was 966 µM and the concentration at 2 h (750 mg, Patient 026, 750 mg) was 95.8 µM. For the same compound, the concentration at 3 h (750 mg, Patient 026, 750 mg, 3 hr) was 125 µM, the concentration at 4 h (750 mg, Patient 026, 750 mg) was 149 µM and the concentration at 24 h (750 mg, Patient 026, 750 mg) was 200 µM. The concentration at 168 h (750 mg, Patient 026, 750 mg) was 186 µM, the concentration at 170 h (750 mg, Patient 026, 750 mg) was 270 µM and the concentration at 171 h (750 mg, Patient 026, 750 mg) was 301 µM. It also gave a concentration at 172 h (750 mg, Patient 026, 750 mg) of 339 µM, a concentration at 192 h (750 mg, Patient 026, 750 mg) of 398 µM and a concentration at 336 h (750 mg, Patient 026, 750 mg) of 352 µM. The concentration at 338 h (750 mg, Patient 026, 750 mg) was 399 µM, the concentration at 339 h (750 mg, Patient 026, 750 mg) was 506 µM and the concentration at 340 h (750 mg, Patient 026, 750 mg) was 492 µM. It also gave a concentration at 360 h (750 mg, Patient 026, 750 mg) of 625 µM, a concentration at 504 h (750 mg, Patient 026, 750 mg) of 479 µM and a concentration at 506 h (750 mg, Patient 026, 750 mg) of 625 µM. The concentration at 507 h (750 mg, Patient 026, 750 mg) was 546 µM, the concentration at 508 h (750 mg, Patient 026, 750 mg) was 582 µM and the concentration at 528 h (750 mg, Patient 026, 750 mg) was 608 µM. For the same compound, the concentration at 672 h (750 mg, Patient 026, 750 mg) was 594 µM, the concentration at 674 h (750 mg, Patient 026, 750 mg) was 606 µM and the concentration at 675 h (750 mg, Patient 026, 750 mg) was 655 µM. For the same compound, the concentration at 676 h (750 mg, Patient 026, 750 mg) was 698 µM, the concentration at 696 h (750 mg, Patient 026, 750 mg) was 732 µM and the concentration at 840 h (750 mg, Patient 026, 750 mg) was 728 µM. It also gave a concentration at 842 h (750 mg, Patient 026, 750 mg) of 824 µM, a concentration at 843 h (750 mg, Patient 026, 750 mg) of 776 µM and a concentration at 844 h (750 mg, Patient 026, 750 mg) of 822 µM. The concentration at 864 h (750 mg, Patient 026, 750 mg) was 812 µM, the concentration at 2 h (750 mg, Patient 027, 750 mg) was 110 µM and the concentration at 4 h (750 mg, Patient 027, 750 mg) was 224 µM. It also gave a concentration at 24 h (750 mg, Patient 027, 750 mg) of 199 µM.
